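Protocol summary: plate cells (96-well), add compound at 5 concentrations, incubate 48 h, interpolate endpoints linearly. Definition used: TGI = concentration required for complete inhibition of growth.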
The compounds below were run on U251 CNS (assay: inhibition of tumour cell growth, NCI panel, 48 h).

Question: O=C(O)c1cc(-c2ccc3c(O)c(O)ccc3c2)ccc1O was tested. Which TGI did it give?
Answer: The TGI was 26.1 µM.

Question: How did the TGI turn out when CCN(CC)CCCNC(=O)c1ccc([N+](=O)[O-])cc1O was run?
Answer: The TGI was > 100 µM.

Question: For Cc1cn([C@@H]2C[C@H](CO)[C@@H](O)C2)c(=O)[nH]c1=O, which TGI is on record?
Answer: Its TGI is > 100 µM.

Question: With CC1CN=C(N(C(=O)Nc2ccc(F)c(Cl)c2)c2ccccc2)S1 (stereo unspecified) as the compound, how does the TGI read?
Answer: The TGI was 50.5 µM.

Question: How did the TGI turn out when C=Cc1ccc(C)[n+](C[Si](C)(C)O[Si](C)(C)C[n+]2cc(C=C)ccc2C)c1 was run?
Answer: The TGI was > 100 µM.

Question: How did the TGI turn out when O=c1[nH]cnc(NC2C=C(CO)C(O)C2O)c1[N+](=O)[O-] (stereo unspecified) was run?
Answer: Its TGI is > 100 µM.

Question: For CCOC(=O)C1(C(=O)OCC)COS(=O)OC1, which TGI is on record?
Answer: The TGI was > 100 µM.

Question: With O=C(NC(COC(=O)C(Cc1ccccc1)NC(=O)c1ccccc1)Cc1ccccc1)c1ccccc1 (stereo unspecified) as the compound, how does the TGI read?
Answer: The TGI was > 50 µM.

Question: CCOC(=O)c1nc2ccc(C(F)(F)F)cc2nc1Oc1ccc(C#N)cc1 was tested. Which TGI did it give?
Answer: Its TGI is 61.1 µM.

Question: Which TGI does the source give for CC(=O)OCC1OC(n2cc(I)c(=O)[nH]c2=O)C(OC(C)=O)C(OC(C)=O)C1OC(C)=O (stereo unspecified) here?
Answer: Its TGI is > 100 µM.

Question: CC(O)CCCOC(c1ccccc1)(c1ccccc1)c1ccccc1 (stereo unspecified) was tested. Which TGI did it give?
Answer: The TGI was 30.3 µM.

Question: With COC(=O)c1cc2c(cc1CC1Cc3cc4c(cc3C1)CCC4)CCC2 as the compound, how does the TGI read?
Answer: The TGI was > 100 µM.

Question: How did the TGI turn out when CC(C(=O)N1C(=O)N(C(=O)C(C)C(O)c2ccccc2)C2CCCCC21)C(O)c1ccccc1 (stereo unspecified) was run?
Answer: The TGI was > 100 µM.

Question: How did the TGI turn out when O=C1NCCS(=O)(=O)N[C@@H](CC2=CC=CCC2)C(=O)N2CCCC12 (stereo partly specified) was run?
Answer: Its TGI is > 100 µM.

Question: For O=[N+]([O-])c1ccc(/C=C/c2cc(-c3ccccc3)nc3ccc4ccccc4c23)cc1, which TGI is on record?
Answer: The TGI was > 100 µM.

Question: How did the TGI turn out when CCC1=NC(C(F)(F)F)(C(F)(F)F)N=C(N2CCOCC2)O1 was run?
Answer: Its TGI is > 100 µM.

Question: Which TGI does the source give for CCN1CCCC(NCc2c3ccccc3c(CNC3CCCN(CC)C3)c3ccccc23)C1 (stereo unspecified) here?
Answer: Its TGI is 45.3 µM.

Question: COc1c(O)c2c3c(c(C)cc(O)c3c1O)C(=O)C(O)(C(C)(C)C(C)=O)C2=O (stereo unspecified) was tested. Which TGI did it give?
Answer: Its TGI is > 100 µM.

Question: Nc1nc(N)c(N=O)c(Nc2ccc(Br)cc2)n1 was tested. Which TGI did it give?
Answer: Its TGI is 59 µM.

Question: For CC(=O)O/N=C/c1c2ccccc2cc2ccccc12, which TGI is on record?
Answer: The TGI was > 100 µM.

Question: Which TGI does the source give for O=C(NCCCN(CCCCN(CCCNC(=O)C(F)(F)F)Cc1ccc2ccccc2c1)Cc1ccc2ccccc2c1)C(F)(F)F here?
Answer: Its TGI is > 100 µM.

Question: CCC1=CC2CN3Cn4c(c(COCc5c6n(c7ccccc57)CN5CC7C=C(CC)C5C6(C(=O)OC)C7)c5ccccc54)C(C(=O)OC)(C2)C13 was tested. Which TGI did it give?
Answer: Its TGI is > 100 µM.

Question: CCOC(CNCCC(=O)OC)OCC was tested. Which TGI did it give?
Answer: Its TGI is > 10 µM.

Question: COc1ccc(CC2c3c(cc(OC)c(OC)c3OC)CCN2C)cc1OC (stereo unspecified) was tested. Which TGI did it give?
Answer: The TGI was > 100 µM.

Question: How did the TGI turn out when C[C@@H](Cl)[C@H]1CCCN(Cc2ccc(Br)cc2)C1 was run?
Answer: The TGI was > 12.5 µM.

Question: Which TGI does the source give for Cc1c(N2C(=O)C(Cl)C2c2ccc(Cl)cc2)c(=O)n(-c2ccccc2)n1C (stereo unspecified) here?
Answer: The TGI was > 100 µM.

Question: For COc1cc2nc(-c3cccs3)oc(=O)c2cc1OC, which TGI is on record?
Answer: Its TGI is > 100 µM.

The compounds below were run on UACC-257 melanoma (assay: inhibition of tumour cell growth, NCI panel, 48 h).

Question: For Cn1ccnc1C(O)(c1nccn1C)c1nccn1C, which TGI is on record?
Answer: The TGI was > 100 µM.

Question: For Cc1ccc(CC[P+](=O)CCc2ccc(C)nc2)cn1, which TGI is on record?
Answer: Its TGI is > 100 µM.

Question: O=C(O)c1cc(-c2ccc3c(O)c(O)ccc3c2)ccc1O was tested. Which TGI did it give?
Answer: The TGI was > 75 µM.

Question: CCN(CC)CCCNC(=O)c1ccc([N+](=O)[O-])cc1O was tested. Which TGI did it give?
Answer: Its TGI is > 100 µM.

Question: Which TGI does the source give for Cc1cn([C@@H]2C[C@H](CO)[C@@H](O)C2)c(=O)[nH]c1=O here?
Answer: The TGI was > 100 µM.

Question: For CC1CN=C(N(C(=O)Nc2ccc(F)c(Cl)c2)c2ccccc2)S1 (stereo unspecified), which TGI is on record?
Answer: Its TGI is 58.7 µM.

Question: Which TGI does the source give for C=Cc1ccc(C)[n+](C[Si](C)(C)O[Si](C)(C)C[n+]2cc(C=C)ccc2C)c1 here?
Answer: Its TGI is > 100 µM.

Question: Which TGI does the source give for O=c1[nH]cnc(NC2C=C(CO)C(O)C2O)c1[N+](=O)[O-] (stereo unspecified) here?
Answer: The TGI was > 100 µM.

Question: How did the TGI turn out when CCOC(=O)C1(C(=O)OCC)COS(=O)OC1 was run?
Answer: The TGI was > 100 µM.

Question: With O=C(NC(COC(=O)C(Cc1ccccc1)NC(=O)c1ccccc1)Cc1ccccc1)c1ccccc1 (stereo unspecified) as the compound, how does the TGI read?
Answer: Its TGI is > 50 µM.

Question: With CCOC(=O)c1nc2ccc(C(F)(F)F)cc2nc1Oc1ccc(C#N)cc1 as the compound, how does the TGI read?
Answer: Its TGI is 65.8 µM.

Question: CC(=O)OCC1OC(n2cc(I)c(=O)[nH]c2=O)C(OC(C)=O)C(OC(C)=O)C1OC(C)=O (stereo unspecified) was tested. Which TGI did it give?
Answer: Its TGI is > 100 µM.

Question: Which TGI does the source give for CC(O)CCCOC(c1ccccc1)(c1ccccc1)c1ccccc1 (stereo unspecified) here?
Answer: Its TGI is 30.4 µM.

Question: Which TGI does the source give for COC(=O)c1cc2c(cc1CC1Cc3cc4c(cc3C1)CCC4)CCC2 here?
Answer: Its TGI is 80.9 µM.

Question: With O=C1NCCS(=O)(=O)N[C@@H](CC2=CC=CCC2)C(=O)N2CCCC12 (stereo partly specified) as the compound, how does the TGI read?
Answer: The TGI was > 100 µM.

Question: O=[N+]([O-])c1ccc(/C=C/c2cc(-c3ccccc3)nc3ccc4ccccc4c23)cc1 was tested. Which TGI did it give?
Answer: The TGI was > 100 µM.

Question: Which TGI does the source give for COc1ccc(-c2oc(/C=N/NC(N)=S)c([N+](=O)[O-])c2-c2ccc(OC)c(OC)c2)cc1OC here?
Answer: The TGI was > 100 µM.

Question: CCC1=NC(C(F)(F)F)(C(F)(F)F)N=C(N2CCOCC2)O1 was tested. Which TGI did it give?
Answer: The TGI was > 100 µM.

Question: Which TGI does the source give for CCN1CCCC(NCc2c3ccccc3c(CNC3CCCN(CC)C3)c3ccccc23)C1 (stereo unspecified) here?
Answer: The TGI was 26.4 µM.

Question: With COc1c(O)c2c3c(c(C)cc(O)c3c1O)C(=O)C(O)(C(C)(C)C(C)=O)C2=O (stereo unspecified) as the compound, how does the TGI read?
Answer: The TGI was > 100 µM.

Question: Which TGI does the source give for Nc1nc(N)c(N=O)c(Nc2ccc(Br)cc2)n1 here?
Answer: The TGI was 77 µM.

Question: How did the TGI turn out when CC(=O)O/N=C/c1c2ccccc2cc2ccccc12 was run?
Answer: Its TGI is > 100 µM.

Question: Which TGI does the source give for O=C(NCCCN(CCCCN(CCCNC(=O)C(F)(F)F)Cc1ccc2ccccc2c1)Cc1ccc2ccccc2c1)C(F)(F)F here?
Answer: The TGI was 4.58 µM.

Question: Which TGI does the source give for CCC1=CC2CN3Cn4c(c(COCc5c6n(c7ccccc57)CN5CC7C=C(CC)C5C6(C(=O)OC)C7)c5ccccc54)C(C(=O)OC)(C2)C13 here?
Answer: The TGI was > 100 µM.

Question: For CCOC(CNCCC(=O)OC)OCC, which TGI is on record?
Answer: Its TGI is > 10 µM.

Question: COc1ccc(CC2c3c(cc(OC)c(OC)c3OC)CCN2C)cc1OC (stereo unspecified) was tested. Which TGI did it give?
Answer: Its TGI is > 100 µM.

Question: Which TGI does the source give for C[C@@H](Cl)[C@H]1CCCN(Cc2ccc(Br)cc2)C1 here?
Answer: Its TGI is > 12.5 µM.

Question: Cc1c(N2C(=O)C(Cl)C2c2ccc(Cl)cc2)c(=O)n(-c2ccccc2)n1C (stereo unspecified) was tested. Which TGI did it give?
Answer: Its TGI is 48.1 µM.

Question: With COc1cc2nc(-c3cccs3)oc(=O)c2cc1OC as the compound, how does the TGI read?
Answer: Its TGI is > 100 µM.
